Patent US20240208933A1, “CRYSTALLINE INHIBITORS OF CYSTEINE PROTEASES AND METHODS OF USE THEREOF” (priority 2021, published 2024)
Like-named read-outs stand apart in the source and are kept apart here.

Key:
[1] = Dynamic vapor sorption (DVS) analysis; format: physicochemical
[2] = Approximate solubility determined by visual observation; format: physicochemical; conditions: organic solvent or mixture
Description: Approximate solubility was determined by visual observation and shown in Form C Table 8.
Approximate solubility was determined by visual observation and shown in Form F Table 12.

Compound | DVS reversible total mass change ([1]; from about 90% to about 0% RH) | DVS gain ([1]; to about 90% relative humidity (RH) at 25° C.) | solubility ([2]; acetone, solvent Acetone, read-out: Solubility of Form C) [mg/mL] | solubility ([2]; ethanol, solvent Ethanol, read-out: Solubility of Form C) [mg/mL] | solubility ([2]; methanol, solvent Methanol, read-out: Solubility of Form C) [mg/mL] | solubility ([2]; methanol/dichloromethane (1/1), solvent Methanol/Dichloromethane (1/1), read-out: Solubility of Form C) [mg/mL] | solubility ([2]; methanol/dichloromethane (1/2), solvent Methanol/Dichloromethane (1/2), read-out: Solubility of Form C) [mg/mL] | solubility ([2]; methanol/dichloromethane (2/1), solvent Methanol/Dichloromethane (2/1), read-out: Solubility of Form C) [mg/mL] | DVS reversable gain ([1]; from about 0 to about 90% relative humidity (RH), no hysteresis) | solubility ([2]; acetone, solvent Acetone, read-out: Solubility of Form F) [mg/mL] | solubility ([2]; ethanol, solvent Ethanol, read-out: Solubility of Form F) [mg/mL] | solubility ([2]; methanol, solvent Methanol, read-out: Solubility of Form F) [mg/mL] | solubility ([2]; methanol/dichloromethane (1/1), solvent Methanol/Dichloromethane (1/1), read-out: Solubility of Form F) [mg/mL] | solubility ([2]; methanol/dichloromethane (1/2), solvent Methanol/Dichloromethane (1/2), read-out: Solubility of Form F) [mg/mL] | solubility ([2]; methanol/dichloromethane (2/1), solvent Methanol/Dichloromethane (2/1), read-out: Solubility of Form F) [mg/mL]
N#C[C@H](C[C@@H]1CCCNC1=O)NC(=O)[C@H](CC1CC1)NC(=O)c1cc2cccc(Cl)c2[nH]1 [Form C, 7-chloro-N—((S)-1-(((S)-1-cyano-2-((S)-2-oxopiperidin-3-yl)ethyl)amino)-3-cyclopropyl-1-oxopropan-2-yl)-1H-indole-2-carboxamide, anhydrate] | about 0.7% | about 0.5% | < 2 | > 2 | > 9 | > 23 | > 28 | > 16 |  |  |  |  |  |  | 
N#C[C@H](C[C@@H]1CCCNC1=O)NC(=O)[C@H](CC1CC1)NC(=O)c1cc2cccc(Cl)c2[nH]1 [Form F, 7-chloro-N—((S)-1-(((S)-1-cyano-2-((S)-2-oxopiperidin-3-yl)ethyl)amino)-3-cyclopropyl-1-oxopropan-2-yl)-1H-indole-2-carboxamide, hydrate] |  |  |  |  |  |  |  |  | about 4 wt. % | < 2 | > 7 | > 11 | > 47 | > 58 | > 19
